# Reference: patent US20230257396A1, “MACROCYCLES AND THEIR USE” (BLOSSOMHILL THERAPEUTICS, INC., priority 2020, published 2023)
# Assays:
# Test in all cases: KINOMEscan kinase binding assay (Eurofins/DiscoveRx), % Ctrl
# Details in all cases: 1 μM
# kinases [1] = biological target: T1, kinases (Homo sapiens, UniProt P00519, M351T)
# T1 construct: purchased Eurofins/DiscoveRx; host or cells: E. coli BL21-derived host (T7 phage display) for most kinases; HEK-293 for the rest
# Description: (§1) Kinase binding assays were performed at Eurofins/DiscoveRx using the general KINOMEscan Protocol (Fabian, M. A. et al., “A small molecule-kinase interaction map for clinical kinase inhibitors,” Nat. Biotechnol. 2005, 23(3):329-36). For most assays, kinase-tagged T7 phage strains were prepared in an E. coli host derived from the BL21 strain. E. coli were grown to log-phase and infected with T7 phage and incubated with shaking at 32° C. until lysis. The lysates were centrifuged and filtered to remove cell debris. The remaining kinases were produced in HEK-293 cells and subsequently tagged with DNA for qPCR detection. Streptavidin-coated magnetic beads were treated with biotinylated small molecule ligands for 30 minutes at room temperature to generate affinity resins for kinase assays. The liganded beads were blocked with excess biotin and washed with blocking buffer (SeaBlock (Pierce), 1% BSA, 0.05% Tween 20, 1 mM DTT) to remove unbound ligand and to reduce nonspecific binding. Binding reactions were assembled by combining kinases, liganded affinity beads, and test compounds in 1×binding buffer (20% SeaBlock, 0.17×PBS, 0.05% Tween 20, 6 mM DTT). All reactions were performed in polystyrene 96-well plates in a final volume of 0.135 mL. The assay plates were incubated at room temperature with shaking for 1 hour and the affinity beads were washed with washbuffer (1×PBS, 0.05% Tween 20). The beads were then re-suspended in elution buffer (1× PBS, 0.05% Tween 20, 0.5 μM non-biotinylated affinity ligand) and incubated at room temperature with shaking for 30 minutes. The kinase concentration in the eluates was measured by qPCR. Results for compounds tested in this assay at a given concentration are reported as “% Ctrl”, where lower numbers indicate stronger binding in the matrix.
# (§2) (test compound signal-positive control signal)/(negative control signal-positive control signal) X100
# kinases [2] = biological target: T2, kinases (Homo sapiens, UniProt P00533)
# T2 construct: purchased Eurofins/DiscoveRx; host or cells: E. coli BL21-derived host (T7 phage display) for most kinases; HEK-293 for the rest
# Description: as §1, §2
# kinases [3] = biological target: T3, kinases (Homo sapiens, UniProt P00533, DEL746-750)
# T3 construct: purchased Eurofins/DiscoveRx; host or cells: E. coli BL21-derived host (T7 phage display) for most kinases; HEK-293 for the rest
# Description: as §1, §2
# kinases [4] = biological target: T4, kinases (Homo sapiens, UniProt P00533, L861Q)
# T4 construct: purchased Eurofins/DiscoveRx; host or cells: E. coli BL21-derived host (T7 phage display) for most kinases; HEK-293 for the rest
# Description: as §1, §2
# kinases [5] = biological target: T5, kinases (Homo sapiens, UniProt P00533, T790M)
# T5 construct: purchased Eurofins/DiscoveRx; host or cells: E. coli BL21-derived host (T7 phage display) for most kinases; HEK-293 for the rest
# Description: as §1, §2
# kinases [6] = biological target: T6, kinases (Homo sapiens, UniProt P07949)
# T6 construct: purchased Eurofins/DiscoveRx; host or cells: E. coli BL21-derived host (T7 phage display) for most kinases; HEK-293 for the rest
# Description: as §1, §2
# kinases [7] = biological target: T7, kinases (Homo sapiens, UniProt P07949, V804L)
# T7 construct: purchased Eurofins/DiscoveRx; host or cells: E. coli BL21-derived host (T7 phage display) for most kinases; HEK-293 for the rest
# Description: as §1, §2
# kinases [8] = biological target: T8, kinases (Homo sapiens, UniProt P10721, A829P)
# T8 construct: purchased Eurofins/DiscoveRx; host or cells: E. coli BL21-derived host (T7 phage display) for most kinases; HEK-293 for the rest
# Description: as §1, §2
# kinases [9] = biological target: T9, kinases (Homo sapiens, UniProt P10721, D816H)
# T9 construct: purchased Eurofins/DiscoveRx; host or cells: E. coli BL21-derived host (T7 phage display) for most kinases; HEK-293 for the rest
# Description: as §1, §2
# kinases [10] = biological target: T10, kinases (Homo sapiens, UniProt P36888, K663Q)
# T10 construct: purchased Eurofins/DiscoveRx; host or cells: E. coli BL21-derived host (T7 phage display) for most kinases; HEK-293 for the rest
# T10 sequence (P36888 27-993 K663Q): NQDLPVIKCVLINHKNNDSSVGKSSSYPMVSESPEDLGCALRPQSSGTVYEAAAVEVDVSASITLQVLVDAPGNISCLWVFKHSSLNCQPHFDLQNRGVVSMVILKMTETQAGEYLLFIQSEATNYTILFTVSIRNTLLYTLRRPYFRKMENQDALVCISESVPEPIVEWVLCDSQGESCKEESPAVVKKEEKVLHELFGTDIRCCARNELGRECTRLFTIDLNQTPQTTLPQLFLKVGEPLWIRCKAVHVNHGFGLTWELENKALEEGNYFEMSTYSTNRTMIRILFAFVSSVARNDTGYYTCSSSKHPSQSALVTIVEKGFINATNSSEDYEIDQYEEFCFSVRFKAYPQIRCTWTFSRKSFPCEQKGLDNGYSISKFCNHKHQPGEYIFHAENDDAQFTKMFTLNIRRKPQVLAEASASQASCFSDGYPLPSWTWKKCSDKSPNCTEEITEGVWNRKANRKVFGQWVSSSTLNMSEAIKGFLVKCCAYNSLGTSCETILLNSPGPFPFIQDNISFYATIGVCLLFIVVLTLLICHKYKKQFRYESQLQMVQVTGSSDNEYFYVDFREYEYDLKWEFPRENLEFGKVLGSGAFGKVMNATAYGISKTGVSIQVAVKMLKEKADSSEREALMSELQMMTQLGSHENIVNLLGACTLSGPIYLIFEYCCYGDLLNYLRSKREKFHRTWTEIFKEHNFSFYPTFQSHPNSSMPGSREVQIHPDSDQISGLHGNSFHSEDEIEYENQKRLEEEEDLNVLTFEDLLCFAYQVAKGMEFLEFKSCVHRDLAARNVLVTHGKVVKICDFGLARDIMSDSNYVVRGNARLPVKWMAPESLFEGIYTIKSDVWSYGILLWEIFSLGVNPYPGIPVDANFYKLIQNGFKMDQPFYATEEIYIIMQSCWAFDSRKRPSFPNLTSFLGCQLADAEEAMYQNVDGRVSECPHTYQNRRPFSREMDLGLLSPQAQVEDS
# Description: as §1, §2
# kinases [11] = tested on: kinases
# Description: as §1, §2
# T6 sequence (P07949 29-1114): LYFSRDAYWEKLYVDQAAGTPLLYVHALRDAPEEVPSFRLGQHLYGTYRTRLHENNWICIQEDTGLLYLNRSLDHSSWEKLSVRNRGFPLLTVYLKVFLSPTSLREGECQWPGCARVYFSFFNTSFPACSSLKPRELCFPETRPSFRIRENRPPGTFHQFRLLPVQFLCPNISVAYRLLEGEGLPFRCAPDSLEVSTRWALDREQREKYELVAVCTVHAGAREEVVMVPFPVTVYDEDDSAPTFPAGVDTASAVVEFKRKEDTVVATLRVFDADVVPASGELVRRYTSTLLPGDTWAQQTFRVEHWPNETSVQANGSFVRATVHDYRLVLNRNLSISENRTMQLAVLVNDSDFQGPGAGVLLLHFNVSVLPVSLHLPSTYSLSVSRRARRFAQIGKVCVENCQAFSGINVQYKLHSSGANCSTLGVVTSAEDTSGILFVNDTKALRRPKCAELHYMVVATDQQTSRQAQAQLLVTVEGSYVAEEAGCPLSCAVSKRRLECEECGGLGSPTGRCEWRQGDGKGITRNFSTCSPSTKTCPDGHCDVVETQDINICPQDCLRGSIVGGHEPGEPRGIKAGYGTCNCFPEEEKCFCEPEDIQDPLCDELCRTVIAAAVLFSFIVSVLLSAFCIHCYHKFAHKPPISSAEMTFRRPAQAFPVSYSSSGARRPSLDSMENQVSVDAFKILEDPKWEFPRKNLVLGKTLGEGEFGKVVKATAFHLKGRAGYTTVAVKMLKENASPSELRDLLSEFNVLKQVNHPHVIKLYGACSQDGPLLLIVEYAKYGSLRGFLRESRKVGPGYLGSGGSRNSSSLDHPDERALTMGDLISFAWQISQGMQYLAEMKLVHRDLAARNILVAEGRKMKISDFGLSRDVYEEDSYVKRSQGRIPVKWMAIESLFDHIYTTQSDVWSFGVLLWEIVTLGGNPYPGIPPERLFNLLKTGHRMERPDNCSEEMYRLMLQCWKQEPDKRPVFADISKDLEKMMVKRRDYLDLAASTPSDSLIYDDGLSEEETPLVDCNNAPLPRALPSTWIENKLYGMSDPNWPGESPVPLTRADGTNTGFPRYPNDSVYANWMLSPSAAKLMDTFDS
# T8 sequence (P10721 26-976 A829P): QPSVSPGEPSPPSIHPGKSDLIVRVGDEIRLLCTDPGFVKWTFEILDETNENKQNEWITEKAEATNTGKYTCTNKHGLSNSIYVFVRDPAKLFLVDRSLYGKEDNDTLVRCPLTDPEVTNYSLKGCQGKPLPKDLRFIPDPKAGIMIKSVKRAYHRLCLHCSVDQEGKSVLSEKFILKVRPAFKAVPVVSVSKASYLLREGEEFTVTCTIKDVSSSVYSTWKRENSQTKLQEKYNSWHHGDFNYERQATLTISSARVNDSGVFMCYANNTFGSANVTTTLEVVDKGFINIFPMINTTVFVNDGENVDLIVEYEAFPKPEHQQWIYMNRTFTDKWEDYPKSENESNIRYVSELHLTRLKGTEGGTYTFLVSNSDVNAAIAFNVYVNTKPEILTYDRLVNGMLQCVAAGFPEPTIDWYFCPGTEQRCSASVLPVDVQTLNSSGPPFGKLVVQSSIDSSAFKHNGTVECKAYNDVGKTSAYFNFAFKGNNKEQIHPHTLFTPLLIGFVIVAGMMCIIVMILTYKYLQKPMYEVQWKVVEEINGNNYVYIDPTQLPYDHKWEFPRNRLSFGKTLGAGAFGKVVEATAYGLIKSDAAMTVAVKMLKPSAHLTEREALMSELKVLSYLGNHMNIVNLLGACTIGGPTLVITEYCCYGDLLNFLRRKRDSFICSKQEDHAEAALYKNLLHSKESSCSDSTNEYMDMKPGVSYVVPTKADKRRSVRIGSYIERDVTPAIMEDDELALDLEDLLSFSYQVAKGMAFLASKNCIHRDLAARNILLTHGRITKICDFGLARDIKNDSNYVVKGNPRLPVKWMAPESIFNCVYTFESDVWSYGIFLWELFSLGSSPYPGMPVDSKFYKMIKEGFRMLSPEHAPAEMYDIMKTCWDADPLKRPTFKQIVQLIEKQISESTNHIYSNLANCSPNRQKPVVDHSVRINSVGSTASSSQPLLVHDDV
# T7 sequence (P07949 29-1114 V804L): as the sequence (P07949 29-1114) above, with V776L counted along it
# T9 sequence (P10721 26-976 D816H): as the sequence (P10721 26-976 A829P) above, with D791H, P804A counted along it
"% Ctrl, ABL1(M351T)-phosphorylated (kinases [1]; ABL1(M351T)-phosphorylated)","% Ctrl, EGFR (kinases [2]; EGFR)","% Ctrl, EGFR(E746-A750del) (kinases [3]; EGFR(E746-A750del))","% Ctrl, EGFR(L861Q) (kinases [4]; EGFR(L861Q))","% Ctrl, EGFR(T790M) (kinases [5]; EGFR(T790M))","% Ctrl, RET (kinases [6]; RET)","% Ctrl, RET(V804L) (kinases [7]; RET(V804L))","% Ctrl, KIT(A829P) (kinases [8]; KIT(A829P))","% Ctrl, KIT(D816H) (kinases [9]; KIT(D816H))","% Ctrl, FLT3(K663Q) (kinases [10]; FLT3(K663Q))","% Ctrl, EGFR(L747-E749del, A750P) (kinases [11]; EGFR(L747-E749del, A750P))","% Ctrl, EGFR(L747-S752del, P753S) (kinases [11]; EGFR(L747-S752del, P753S))","% Ctrl, EGFR(L747-T751del, Sins) (kinases [11]; EGFR(L747-T751del, Sins))","% Ctrl, FLT3(ITD) (kinases [11]; FLT3(ITD))","% Ctrl, FLT3(ITD, D835V) (kinases [11]; FLT3(ITD, D835V))","% Ctrl, FLT3(ITD, F691L) (kinases [11]; FLT3(ITD, F691L))",SMILES,other results
53 % Ctrl,62 % Ctrl,36 % Ctrl,91 % Ctrl,36 % Ctrl,34 % Ctrl,17 % Ctrl,45 % Ctrl,38 % Ctrl,17 % Ctrl,87 % Ctrl,78 % Ctrl,77 % Ctrl,13 % Ctrl,0.8 % Ctrl,0.35 % Ctrl,"Cc1cc2c([nH]1)/C=C1\C(=O)Nc3ccc(cc31)-c1ccnn1CCOCCN(C)C2=O [Ex. 41, [19a(20)Z]-2,5-dimethyl-6,7,9,10-tetrahydro-1H-15,17-(ethanediylidene)pyrazolo[1,5-d]dipyrrolo[3,4-h:2′,3′-k][1,4,14]oxadiazacyclohexadecine-4,19(5H,18H)-dione]",–
78 % Ctrl,61 % Ctrl,69 % Ctrl,90 % Ctrl,100 % Ctrl,85 % Ctrl,100 % Ctrl,77 % Ctrl,65 % Ctrl,72 % Ctrl,89 % Ctrl,86 % Ctrl,85 % Ctrl,100 % Ctrl,38 % Ctrl,47 % Ctrl,"Cc1cc2c([nH]1)/C=C1\C(=O)Nc3ccc(cc31)-c1ccnn1CCNCCNC2=O [Ex. 43, [19a(20)Z]-2-methyl-5,6,7,8,9,10-hexahydro-15,17-(ethanediylidene)pyrazolo[1,5-g]dipyrrolo[3,4-k:2′,3′-n][1,4,7]triazacyclohexadecine-4,19(1H,18H)-dione]",–
–,–,–,–,–,–,–,–,–,–,–,–,–,–,–,–,"Cc1cc2c([nH]1)/C=C1\C(=O)Nc3cnc(cc31)-c1cn[nH]c1CNCCN(C)C2=O [Ex. 55, [3a(4)Z]-6,9-dimethyl-9,10,11,12,13,14-hexahydro-17,1-(azenometheno)pyrazolo[4,3-m]dipyrrolo[3,2-f:3′,4′-i][1,4]diazacyclopentadecine-3,8(2,5H)-dione]","% Ctrl, ABL1(M351T)-phosphorylated (kinases [1]; target ABL1(M351T)-phosphorylated): 3.7 % Ctrl; % Ctrl, EGFR (kinases [2]; target EGFR): 59 % Ctrl; % Ctrl, EGFR(E746-A750del) (kinases [3]; target EGFR(E746-A750del)): 74 % Ctrl; % Ctrl, EGFR(L861Q) (kinases [4]; target EGFR(L861Q)): 58 % Ctrl; % Ctrl, EGFR(T790M) (kinases [5]; target EGFR(T790M)): 70 % Ctrl; % Ctrl, RET (kinases [6]; target RET): 4.2 % Ctrl; % Ctrl, RET(V804L) (kinases [7]; target RET(V804L)): 0.3 % Ctrl; % Ctrl, KIT(A829P) (kinases [8]; target KIT(A829P)): 39 % Ctrl; % Ctrl, KIT(D816H) (kinases [9]; target KIT(D816H)): 18 % Ctrl; % Ctrl, FLT3(K663Q) (kinases [10]; target FLT3(K663Q)): 1.2 % Ctrl; % Ctrl, EGFR(L747-E749del, A750P) (kinases [11]; target EGFR(L747-E749del, A750P)): 82 % Ctrl; % Ctrl, EGFR(L747-S752del, P753S) (kinases [11]; target EGFR(L747-S752del, P753S)): 56 % Ctrl; % Ctrl, EGFR(L747-T751del, Sins) (kinases [11]; target EGFR(L747-T751del, Sins)): 66 % Ctrl; % Ctrl, FLT3(ITD) (kinases [11]; target FLT3(ITD)): 0.3 % Ctrl; % Ctrl, FLT3(ITD, D835V) (kinases [11]; target FLT3(ITD, D835V)): 1.2 % Ctrl; % Ctrl, FLT3(ITD, F691L) (kinases [11]; target FLT3(ITD, F691L)): 0.1 % Ctrl"
54 % Ctrl,98 % Ctrl,100 % Ctrl,100 % Ctrl,100 % Ctrl,63 % Ctrl,43 % Ctrl,100 % Ctrl,87 % Ctrl,57 % Ctrl,91 % Ctrl,55 % Ctrl,98 % Ctrl,45 % Ctrl,8.3 % Ctrl,9.2 % Ctrl,"Cc1cc2c([nH]1)/C=C1\C(=O)Nc3ccc(cc31)O[C@@H](C)COCCN(C)C2=O [Ex. 92, [10S,16a(17)Z]-2,5,10-trimethyl-6,7,9,10-tetrahydro-1H-12,14-(ethanediylidene)dipyrrolo[3,2-i:3′,4′-l][1,4,7]dioxazacyclopentadecine-4,16(5H,15H)-dione]",–
0.05 % Ctrl,50 % Ctrl,15 % Ctrl,81 % Ctrl,8.5 % Ctrl,0 % Ctrl,0 % Ctrl,4.3 % Ctrl,0.4 % Ctrl,13 % Ctrl,25 % Ctrl,37 % Ctrl,57 % Ctrl,0 % Ctrl,0 % Ctrl,0.65 % Ctrl,"Cc1cc2c([nH]1)/C=C1\C(=O)Nc3ccc(cc31)-c1cnn(C)c1COCCN(C)C2=O [Ex. 124, [3a(4)Z]-6,9,14-trimethyl-10,11,13,14-tetrahydro-2H-1,17-(ethanediylidene)pyrazolo[4,3-m]dipyrrolo[3,2-f:3′,4′-i][1,4]oxazacyclopentadecine-3,8(5H,9H)-dione]",–
